According to patent publication US11685726B2, “Pharmaceutical compositions of 6-(2-(2H-tetrazol-5-yl)ethyl)-6-fluorodecahydroisoquinoline-3-carboxylic acid and ester derivatives thereof” (Sea Pharmaceuticals LLC, priority 2020, dated 2023):

Legend:
[1] = LCMS bioanalysis of compound levels in rat samples (plasma, CSF, brain) after administration; assay type: in vivo; details: lower limit of quantification 1 ng/ml
Description: Measurement of Compound 1 or Compound 2 from rat samples (plasma, cerebral spinal fluid “CSF” or brain homogenate) was done by high resolution using a sensitive LCMS method.
Extracts of biological samples (either organic solvent precipitated or organic solvent extracted i. plasma or ii. CSF or iii. homogenates of whole brains from Compound 1 or Compound 2 treated rats) were subjected to LCMS and were compared to freshly prepared standard curves on exactly the same LCMS instrument. The standard curves were prepared of Compound 1 or Compound 2 at known concentrations dispensed (spiked) into rat plasma (supplied by Bioivt formerly Bioreclamation, Cat. No. RAT00PLK2Y2N, Bioivt, Hicksville N.Y. USA) as Sprague Dawley male rat plasma prepared by collection of blood into potassium-EDTA “K2-EDTA” tubes, centrifuged and stored at −80 C until usage). […] The lower limit of quantification of Compound 1 or Compound 2 based on the conditions used was 1 ng/ml and the standard curve was linear to 5,000 ng/ml. […]
Acute administration of test compound 1 or test compound 2 by routes described (either PO, SC or IV) was done to rats and samples collected at the timepoints described for subsequent extraction, dissolution and quantitative LCMS bioanalysis. […]

[2] = system: AMPA receptor; assay: Whole cell patch-clamp recording of s-AMPA induced currents in pyramidal neurons of rat brain prefrontal cortex slices; assay type: cell-based; details: 20 μM s-AMPA, rat brain cortex slices
Experimental: Additionally biological activity of compounds as antagonists of AMPA receptors or NMDA receptors (also called ionotropic glutamate-gated ion channels) were conducted using ex vivo functional electrophysiological assays of pyramidal neurons in slices of rat brain prefrontal cortex. Effects of test compounds cf. reference compounds were studied by whole cell patch-clamp electrophysiology recordings of s-AMPA-induced currents or NMDA-induced currents, respectively, using rat brain slice prefrontal cortex (layer V) pyramidal neurons.
Male Sprague Dawley rats were supplied by Charles River Laboratories (Wilmington, Mass. USA) and were housed 4 per cage within a temperature (20.5-23.5° C.) and humidity (30-80%) controlled environment on a 12 hour light/dark cycle with access to food (Teklad Global Soy Protein, Cat. No. T.2920X10, Envigo, Indianapolis, Ind., USA) and water ad libitum. At 4-6 weeks of age rats were terminally anaesthetized using isofluorane [(1-chloro-2,2,2-trifluoroethyl difluoromethyl ether) supplied by Baxter Healthcare Corp, Deerfield, Ill., USA], and decapitated. The brain was removed and 300 μm thick coronal prefrontal cortex (PFC) or sagittal hippocampal slices were sectioned using a Vibratome microtome. After brain removal, and throughout slicing, the tissue was submerged in ice cold […] cerebrospinal fluid (aCSF). Once slices were cut, they were transferred to a beaker containing aCSF and left at room temperature for a minimum of 1 hour before commencing electrophysiological recordings. After this period, individual slices were transferred to a recording chamber continuously perfused with aCSF at a rate of 4-6 mL/min before commencing experiment protocols. aCSF composition (in mM): NaCl, 127; KCl, 1.9; KH2PO4, 1.2; CaCl2), 2.4; MgCl2, 1.3; NaHCO3, 26; D-glucose, 10; in water equilibrated with 95% Oxygen gas-5% CO2 gas (reagent suppliers listed below). Experiments investigating NMDA currents had aCSF supplemented with 10 μM glycine (reagents suppliers listed below). All experiments were conducted following protocols with the approval of an Institutional Animal Care and Use Committee (IACUC).
Whole cell patch-clamp recordings were performed from Layer V prefrontal cortex pyramidal neurons at room temperature using the ‘visualized’ version of the patch-clamp technique. […]
All test compound experiments were carried out in the voltage-clamp recording configuration of the whole cell patch-clamp technique and all recordings performed at a holding potential of −60 mV. Recordings were monitored on a Dell personal computer (PC) running Axon pClamp software (Molecular Devices, Sunnyvale, Calif., USA) and digitized at 10 kHz. […]

[3] = In vitro stability in physiological buffers with or without fatty acid free BSA; assay type: physicochemical; details: 30 minutes at 37 degrees C
[4] = Tested at 1 pM (so in the source)

Row | Structure (SMILES) | compound levels in vivo by LCMS [1] | % inhibition +/- SEM of s-AMPA induced currents in neurons [2, 4] | stability in physiological buffers [3] | % inhibition +/- SEM of s-AMPA induced currents in neurons ([2]; Tested at 10 pM (so in the source))
1 | O=C(O)[C@@H]1C[C@H]2CC(F)(CCc3nnn[nH]3)CC[C@H]2CN1 (stereo in doubt) [Compound 2, (3S,4aS,6R,8aR)-6-fluoro-6-[2-(1H-1,2,3,4-tetrazol-5-yl)ethyl]-decahydroisoquinoline-3-carboxylic acid] | below limit of detection | 21.4 ± 2.1 (n = 3) % | stable | 
2 | O=C(O)[C@@H]1C[C@H]2C[C@@](F)(CCc3nnn[nH]3)CC[C@H]2CN1 [Compound 1, (3S,4aS,6S,8aR)-6-fluoro-6-[2-(1H-1,2,3,4-tetrazol-5-yl)ethyl]-decahydroisoquinoline-3-carboxylic acid] |  | 55.6 ± 5.8 (n = 3) % |  | >90 (n = 1) %
